Results taken from PubChem BioAssay AID489003 (NMMLSC, 2010).
Active and inactive are the calls of the source.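 How the source made its calls: active means compounds whose weighted score, built from EC50 under 10 micromolar and fitted span over a set limit, tops 52; inactive means the rest.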

Target: Broad substrate specificity ATP-binding cassette transporter ABCG2 (Homo sapiens) (UniProt Q9UNQ0)
Test: ABCG2 efflux pump inhibitors, dose response, Ig-MXP3 cells, JC-1 substrate, flow cytometry (AID 489003)
Settings: JC-1 efflux

Broad substrate specificity ATP-binding cassette transporter ABCG2 (Homo sapiens), sequence (Q9UNQ0 whole entry, looked up): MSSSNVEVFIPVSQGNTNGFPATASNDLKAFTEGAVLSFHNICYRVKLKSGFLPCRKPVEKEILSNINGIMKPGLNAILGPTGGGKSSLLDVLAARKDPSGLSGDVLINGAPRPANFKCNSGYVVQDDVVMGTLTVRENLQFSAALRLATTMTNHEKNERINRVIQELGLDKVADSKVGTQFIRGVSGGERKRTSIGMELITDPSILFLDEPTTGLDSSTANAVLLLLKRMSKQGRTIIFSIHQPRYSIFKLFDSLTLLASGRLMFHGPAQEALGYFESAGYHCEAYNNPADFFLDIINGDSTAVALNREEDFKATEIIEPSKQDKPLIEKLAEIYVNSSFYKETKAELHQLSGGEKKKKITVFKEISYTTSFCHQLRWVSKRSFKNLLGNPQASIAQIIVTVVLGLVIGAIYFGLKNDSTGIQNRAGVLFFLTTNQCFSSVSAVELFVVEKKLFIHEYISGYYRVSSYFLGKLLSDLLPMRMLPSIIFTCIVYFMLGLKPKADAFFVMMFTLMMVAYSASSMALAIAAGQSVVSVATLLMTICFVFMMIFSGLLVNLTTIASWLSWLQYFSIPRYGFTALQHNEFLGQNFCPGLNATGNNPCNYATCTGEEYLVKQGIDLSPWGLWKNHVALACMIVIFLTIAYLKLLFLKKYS

## Cc1c(-c2ccco2)nc2cc(-c3ccccc3)nn2c1N1CCN(C(=O)c2ccoc2)CC1
  EC50: 2.44 µM

## O=C(c1ccoc1)N1CCN(c2cc(-c3ccc(F)cc3)nc3cc(-c4ccccc4)nn23)CC1
  EC50: 12.1 µM

## CC(C)(C)c1cc(N2CCN(C(=O)c3ccoc3)CC2)n2nc(-c3ccccc3)cc2n1
  EC50: inactive

## Cc1nc2cc(-c3ccc(F)cc3)nn2c(N2CCN(C(=O)c3ccco3)CC2)c1C
  EC50: 7.64 µM

## COc1ccccc1-c1cc2nc(-c3ccco3)cc(N3CCN(C(=O)c4ccoc4)CC3)n2n1
  EC50: 4.27 µM

## Cc1occc1C(=O)N1CCN(c2cc(-c3ccco3)nc3cc(-c4ccccc4)nn23)CC1
  EC50: 1.69 µM

## O=C(c1ccoc1)N1CCN(c2cc(-c3ccco3)nc3cc(-c4cccc(-c5ccco5)c4)nn23)CC1
  EC50: 0.503 µM

## COc1cc(OC)cc(-c2cc3nc(C)c(C)c(N4CCN(C(=O)c5ccoc5)CC4)n3n2)c1
  EC50: 0.664 µM

## Cc1ccc(-c2cc(N3CCN(C(=O)c4ccoc4)CC3)n3nc(-c4ccccc4)cc3n2)o1
  EC50: 1.45 µM

## O=C(c1ccco1)N1CCN(c2cc(-c3ccccc3)nc3ncnn23)CC1
  EC50: 3.55 µM

## Cc1nc2cc(-c3ccc(Br)cc3)nn2c(N2CCN(C(=O)c3ccoc3)CC2)c1C
  EC50: 10.1 µM

## O=C(c1ccoc1)N1CCN(c2cc(-c3cccc(F)c3)nc3cc(-c4cccc(Cl)c4)nn23)CC1
  EC50: 2.3 µM

## O=C(c1ccccc1)N1CCN(c2cc(-c3ccco3)nc3cc(-c4ccccc4)nn23)CC1
  EC50: 1.51 µM

## O=C(c1ccco1)N1CCN(c2c3c(nc4cc(-c5ccc(F)cc5)nn24)CCC3)CC1
  EC50: 0.701 µM

## Cc1cc(N2CCN(C(=O)c3ccco3)CC2)n2nc(-c3ccccc3)nc2n1
  EC50: 9.43 µM

## O=C(c1ccoc1)N1CCN(c2cc(-c3ccco3)nc3cc(-c4ccco4)nn23)CC1
  EC50: 0.697 µM

## c1ccc(-c2cc3nc(-c4ccco4)cc(N4CCNCC4)n3n2)cc1
  EC50: 6.98 µM

## CC1CN(C(=O)c2ccoc2)CCN1c1cc(-c2ccco2)nc2cc(-c3ccccc3)nn12 (configuration not stated)
  EC50: 2.92 µM

## O=C(c1ccoc1)N1CCN(c2cc(-c3cccs3)nc3cc(-c4ccccc4)nn23)CC1
  EC50: 1.66 µM

## Cc1nc2cc(-c3ccc4c(c3)OCO4)nn2c(N2CCN(C(=O)c3ccoc3)CC2)c1C
  EC50: 0.613 µM

## Cc1nc2cc(-c3ccccc3)nn2c(N2CCN(C(=O)c3ccoc3)CC2)c1C
  EC50: 2 µM

## COc1cccc(-c2cc3nc(-c4cccc(C(F)(F)F)c4)cc(N4CCN(C(=O)c5ccoc5)CC4)n3n2)c1
  EC50: 0.788 µM

## COc1cccc(-c2cc3nc(C)c(C)c(N4CCN(C(=O)c5ccco5)CC4)n3n2)c1
  EC50: 7.1 µM

## Cc1cc(N2CCN(C(=O)c3ccco3)CC2)n2ncc(-c3ccccc3)c2n1
  EC50: 7.52 µM

## O=C(c1ccoc1)N1CCN(c2cc(-c3ccco3)nc3cc(-c4ccc(Cl)cc4)nn23)CC1
  EC50: 2.72 µM

## COc1cccc(-c2cc3nc(-c4ccco4)cc(N4CCN(C(C)=O)CC4)n3n2)c1
  EC50: 0.892 µM

## Cc1ccc(-c2cc3nc(-c4ccco4)cc(N4CCN(Cc5ccoc5)CC4)n3n2)cc1
  EC50: 1.82 µM

## O=C(c1ccoc1)N1CCN(c2cc(-c3ccccc3)nc3cc(-c4ccncc4)nn23)CC1
  EC50: 1.03 µM

## CC(=O)N1CCN(c2cc(-c3ccco3)nc3cc(-c4cccc(Cl)c4)nn23)CC1
  EC50: 0.626 µM

## COc1cccc(-c2cc3nc(C)c(C)c(N4CCN(Cc5ccco5)CC4)n3n2)c1
  EC50: 0.393 µM

## CC1CN(C(=O)OC(C)(C)C)CCN1c1cc(-c2ccco2)nc2cc(-c3ccccc3)nn12 (configuration not stated)
  EC50: 3.44 µM

## COc1ccccc1-c1cc(N2CCN(C(=O)c3ccoc3)CC2)n2nc(-c3ccccc3)cc2n1
  EC50: 1.87 µM

## O=C(c1ccco1)N1CCN(c2cc(-c3ccco3)nc3cc(-c4ccccc4)nn23)CC1
  EC50: 0.852 µM

## COc1cccc(-c2cc3nc(-c4cccc(C#N)c4)cc(N4CCN(C(=O)c5ccoc5)CC4)n3n2)c1
  EC50: 2.53 µM

## CN(C)c1cc(-c2ccco2)nc2cc(-c3ccccc3)nn12
  EC50: 8.87 µM

## Cc1ccc(-c2nc3nc(C)cc(N4CCN(C(=O)c5ccco5)CC4)n3n2)cc1
  EC50: 4.17 µM

## Cc1coc(C)c1C(=O)N1CCN(c2cc(-c3ccco3)nc3cc(-c4ccccc4)nn23)CC1
  EC50: 3.22 µM

## COc1ccc(-c2[nH]nc3nc(N4CCN(C(=O)c5ccoc5)CC4)cc(C(F)(F)F)c23)cc1
  EC50: 8.44 µM

## COc1cccc(-c2cc3nc(-c4ccccc4)cc(N4CCN(C(=O)c5ccoc5)CC4)n3n2)c1
  EC50: 1.92 µM

## CNCCCN(C)c1cc(-c2ccco2)nc2cc(-c3ccccc3)nn12
  EC50: inactive

## O=C(c1ccoc1)N1CCN(c2cc(-c3ccoc3)nc3cc(-c4ccccc4)nn23)CC1
  EC50: 1.59 µM

## COc1cccc(-c2cc3nc(C)c(C)c(N4CCN(C(=O)c5ccoc5)CC4)n3n2)c1
  EC50: 3.83 µM
